Entries after “also recorded” stand apart in the source; their conditions may differ. Where two headings read alike, the source gives them in different places. Non-standard residues stand in square brackets, D forms with d. Residues, ends and D or L forms follow the SMILES beside them. No end group written: not given here. NMeF = CN[C@@H](Cc1ccccc1)C(=O)O
B1: CCK: unrelated neuropeptide (peptide, UniProt P06307 21-115, looked up)
Cholecystokinin: QPVPPADPAGSGLQRAEEAPRRQLRVSQRTDGESRAHLGALLARYIQQARKAPSGRMSIVKNLQNLDPSHRISDRDYMGWMDFGRRSAEEYEYPS
modifications: Cholecystokinin
notes: unrelated neuropeptide

Experiments:
SNORF2 (NPFF1) = molecular target: T1, SNORF2 (NPFF1) (Rattus norvegicus, UniProt Q9EP86); assay: Voltage-clamp electrophysiology in Xenopus oocytes expressing SNORF2 (NPFF1) and chimeric Gαq/z; type: cell-based; settings: for activation of oocytes injected with SNORF2 synthetic RNA: unrelated neuropeptides and neurotransmitters, concentration not given; for inward current response: 1 μM, oocytes with SNORF2 and Gαq/z, holding potential −80 mV
T1 construct: from linearized plasmids or PCR products containing the complete coding region of the genes; expressed in transfected cells; host or cells: Xenopus laevis oocytes injected with synthetic RNA
T1 sequence (Q9EP86 whole entry): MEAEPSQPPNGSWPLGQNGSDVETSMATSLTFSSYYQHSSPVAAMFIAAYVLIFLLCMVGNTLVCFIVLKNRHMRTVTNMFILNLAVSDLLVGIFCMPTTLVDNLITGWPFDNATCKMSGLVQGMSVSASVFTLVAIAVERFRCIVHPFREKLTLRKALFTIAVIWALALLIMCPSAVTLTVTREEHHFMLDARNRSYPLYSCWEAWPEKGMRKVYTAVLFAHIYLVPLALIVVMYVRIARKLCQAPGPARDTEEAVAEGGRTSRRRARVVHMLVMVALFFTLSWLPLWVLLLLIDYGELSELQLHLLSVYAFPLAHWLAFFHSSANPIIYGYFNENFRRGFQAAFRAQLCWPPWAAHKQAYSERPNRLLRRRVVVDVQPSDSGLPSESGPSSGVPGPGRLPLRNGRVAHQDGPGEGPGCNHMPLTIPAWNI
Experimental: (§1) Oocytes were harvested from Xenopus laevis and injected with mRNA transcripts as previously described (Quick and Lester, 1994; Smith et al., 1997). […] Three to eight hours prior to recording, oocytes were injected with 500 pg Gαq/z mRNA in order to observe coupling to Ca^++ activated Cl^− currents. Dual electrode voltage clamp (Axon Instruments Inc.) was performed using 3 M KCl-filled glass microelectrodes having resistances of 1–2 Mohm. Unless otherwise specified, oocytes were voltage clamped at a holding potential of −80 mV. During recordings, oocytes were bathed in continuously flowing (1–3 ml/min) medium containing 96 mM NaCl, 2 mM KCl, 1.8 mM CaCl2, 1 mM MgCl2, and 5 mM HEPES, pH 7.5 (ND96). Drugs were applied either by local perfusion from a […] glass capillary tube fixed at a distance of 0.5 mm from the oocyte, or by switching from a series of gravity fed perfusion lines.
Heterologous expression of GPCRs in Xenopus oocytes has been widely used to determine the identity of signaling pathways activated by agonist stimulation (Gundersen et al., 1983; Takahashi et al., 1987). Activation of the phospholipase C (PLC) pathway is assayed by applying test compound in ND96 solution to oocytes previously injected with mRNA for the mammalian receptor and observing inward currents at a holding potential of −80 mV. The appearance of currents that reverse at −25 mV and display other properties of the Ca^++-activated Cl^− (chloride) channel is indicative of mammalian receptor-activation of PLC and release of IP3 and intracellular Ca^++.
Control oocytes receiving only G-protein synthetic RNA were unresponsive to these peptides. […] Similarly, SNORF2-like was renamed NPFF-like.

[1] = molecular target: T2, cloned rat NPFF1 receptor (Rattus norvegicus, UniProt Q9EP86); assay: Radioligand binding to cloned rat NPFF1 receptor, membranes of transiently transfected COS-7 cells
T2 construct: expressed in transfected cells; host or cells: COS-7 cells, transient; membranes
T2 sequence (Q9EP86 whole entry): as above
Experimental: Transfected cells from culture flasks are scraped into 5 ml of 20 mM Tris-HCl, 5 mM EDTA, pH 7.5, and lysed by sonication. The cell lysates are centrifuged at 1000 rpm for 5 min. at 4° C., and the supernatant is centrifuged at 30,000× g for 20 min. at 4° C. […] Optimal membrane suspension dilutions, defined as the protein concentration required to bind less than 10% of the added radioligand, […], unlabeled compounds, and binding buffer to a final volume of 250 μl. In equilibrium saturation binding assays membrane preparations are incubated in the presence of increasing concentrations of [^3H]-labeled compound.
(§2) Competition assay: 50 pM radioligand, 10–12 points. Binding reaction mixtures are incubated for 2 hr at 25° C., and the reaction stopped by filtration through a double layer of GF filters treated with 0.1% polyethyleneimine, using a cell harvester. Wash buffer: 50 mM Tris-HCl, 0.1% BSA. Radioactivity may be measured by scintillation counting and data are analyzed by a computerized non-linear regression program. Non-specific binding is defined as the amount of radioactivity remaining after incubation of membrane protein in the presence of 1 μM final concentration […]. Protein concentration may be measured by the Bradford method using Bio-Rad Reagent, with bovine serum albumin as a standard.
Cos-7 cells transiently expressing the gene encoding the novel rat NPFF1 receptor were used for pharmacological evaluation. […]

[2] = molecular target: rat spinal cord membrane receptor; assay: Radioligand binding to rat spinal cord membranes; settings: * marks difference from NPFF1
Experimental: Transfected cells from culture flasks are scraped into 5 ml of 20 mM Tris-HCl, 5 mM EDTA, pH 7.5, and lysed by sonication. The cell lysates are centrifuged at 1000 rpm for 5 min. at 4° C., and the supernatant is centrifuged at 30,000× g for 20 min. at 4° C. […] Optimal membrane suspension dilutions, defined as the protein concentration required to bind less than 10% of the added radioligand, are added to 96-well polpropylene microtiter plates containing ^3H-labeled compound, unlabeled compounds, and binding buffer to a final volume of 250 μl. In equilibrium saturation binding assays membrane preparations are incubated in the presence of increasing concentrations of [^3H]-labeled compound.
as §2
The binding profile of rat NPFF1 was compared to that of rat spinal cord membranes. […] (See * Table 2).

NPFF2 (hNPFF2) = molecular target: T3, NPFF2 (hNPFF2) (Homo sapiens, UniProt Q9Y5X5); assay: Voltage-clamp electrophysiology in Xenopus oocytes expressing NPFF2 (NPFF-like) and chimeric Gαq/z; type: cell-based; settings: 1 μM; oocytes with NPFF2 (NPFF-like) mRNA and Gαq/z; −80 mV
T3 construct: BO89, was determined to be a full length clone with no point mutations; expressed in transfected cells; host or cells: Xenopus laevis oocytes injected with synthetic mRNA
T3 sequence (Q9Y5X5 103-522): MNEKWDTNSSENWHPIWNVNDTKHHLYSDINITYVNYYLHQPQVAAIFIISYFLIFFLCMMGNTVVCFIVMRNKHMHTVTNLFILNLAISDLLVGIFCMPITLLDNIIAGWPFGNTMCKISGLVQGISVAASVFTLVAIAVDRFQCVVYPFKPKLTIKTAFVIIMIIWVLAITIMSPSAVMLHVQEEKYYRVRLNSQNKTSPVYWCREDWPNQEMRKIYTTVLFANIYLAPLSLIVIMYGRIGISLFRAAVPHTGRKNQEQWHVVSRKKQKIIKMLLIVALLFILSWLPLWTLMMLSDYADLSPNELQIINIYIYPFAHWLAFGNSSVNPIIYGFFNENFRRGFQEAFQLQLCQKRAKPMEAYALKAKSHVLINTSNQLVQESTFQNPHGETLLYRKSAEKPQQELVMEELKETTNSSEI
Experimental: Electrophysiological responses in voltage-clamped oocytes expressing NPFF2 mRNA. […] Oocytes were clamped at a holding potential of −80 mV.
For expression of NPFF2, mRNA transcripts were generated as described for NPFF1, using PCR products from ligation reactions or linearized DNA from B089 as DNA templates. Oocytes were injected with 5–50 ng NPFF2 mRNA and incubated as previously described.
as §1

NPFF receptors = settings: at a concentration of 10 μM; spinal cord membranes; cited from earlier work
[3] = competition of [125I]D-Tyr-NPFF binding, transiently transfected COS-7 membranes
[4] = competition of [125I]D-Tyr-NPFF binding, transiently transfected COS-7 membranes, read-out: pKi for cloned rat NPFF1 receptor binding in COS-7 cells, MEAN (converted)

| Molecule | pKi for rat spinal cord membrane receptor binding, MEAN [2] | pKi for cloned rat NPFF1 receptor binding in COS-7 cells, MEAN [1, 3] | also measured |
| --- | --- | --- | --- |
| orexin B: unrelated neuropeptide | – | – | activation of oocytes injected with SNORF2 synthetic RNA (SNORF2 (NPFF1)): failed to activate |
| PDVDHVFLRF-NH2 [SchistFLRF] | – | – | Ki [1]: 1100 nM |
| TEPGLEEVGEIEQKQLQ [nocistatin] | 5.000 | – | – |
| CC(C)C[C@H](NC(=O)[C@H](CCCCN)NC(=O)[C@H](CCCN=C(N)N)NC(=O)[C@H](C)NC(=O)[C@H](CO)NC(=O)[C@H](CCCCN)NC(=O)[C@H](CCCN=C(N)N)NC(=O)[C@H](C)NC(=O)CNC(=O)[C@@H](NC(=O)[C@H](Cc1ccccc1)NC(=O)CNC(=O)CNC(=O)[C@@H](N)Cc1ccccc1)[C@@H](C)O)C(=O)N[C@@H](C)C(=O)N[C@@H](CC(N)=O)C(=O)N[C@@H](CCC(N)=O)C(=O)O [nociceptin] | 5.000 | 5.000 | activation of oocytes injected with SNORF2 synthetic RNA (SNORF2 (NPFF1)): failed to activate |
| CC(C)C[C@H](NC(=O)[C@H](N)Cc1ccc(O)cc1)C(=O)N(C)[C@@H](Cc1ccccc1)C(=O)N[C@@H](CCC(N)=O)C(=O)N1CCC[C@H]1C(=O)N[C@@H](CCC(N)=O)C(=O)N[C@@H](CCCN=C(N)N)C(=O)N[C@@H](Cc1ccccc1)C(N)=O [(D-Tyr^1-(NMe)Phe^3)NPFF] (H-[dY]L[NMeF]QPQRF-NH2) | – | – | Ki [1, 4]: 2.82 nM |
| N=C(N)NCCC[C@H](N)C(=O)O [L-arginine] | 5.000 | 5.000 | – |
| orexin A: unrelated neuropeptide (QPLPDCCRQKTCSCRLYELLHGAGNHAAGILTL; ends and bridges not checked; cysteine pairing not given here; UniProt O43612 34-66, looked up) | – | – | inward current response (NPFF2 (hNPFF2)): failed to activate responses; also recorded: no response is observed |
| C[C@@H]1CN([C@H]2CC[C@](C#N)(c3ccc(F)cc3)CC2)CC[C@]1(C(=O)O)c1ccccc1 [levocabastine] | 5.000 | 5.000 | – |
| CSCC[C@H](NC(=O)[C@H](Cc1ccc(OS(=O)(=O)O)cc1)NC(=O)[C@@H](N)CC(=O)O)C(=O)NCC(=O)N[C@@H](Cc1c[nH]c2ccccc12)C(=O)N[C@@H](CCSC)C(=O)N[C@@H](CC(=O)O)C(=O)N[C@@H](Cc1ccccc1)C(N)=O [CCK8] | 5.000 | – | – |
| AGEGLSSPYWSLAAPQRF-NH2 [[Y^9]A18Fa] | – | – | Ki [1, 4]: 27.7 nM; inward current response (SNORF2 (NPFF1)): displayed activity |
| melanin concentrating hormone: unrelated neuropeptide | – | – | activation of oocytes injected with SNORF2 synthetic RNA (SNORF2 (NPFF1)): failed to activate |
| CSCC[C@H](NC(=O)[C@@H]1CCCN1)C(=O)N[C@@H](CCCNC(=N)N)C(=O)N[C@@H](Cc1ccccc1)C(N)=O [PMRFa] (H-PMRF-NH2; N-terminus assumed) | – | – | Ki [1, 4]: 2.82 nM |
| YLFQPQRF-NH2 [Y8Fa] [listing 1 of 2 here] | – | – | inward current response (SNORF2 (NPFF1)): displayed activity |
| NCCc1ccc(O)c(O)c1 [dopamine] | 5.000 | 5.000 | – |
| neurokinin A: unrelated neuropeptide | – | – | inward current response (NPFF2 (hNPFF2)): failed to activate responses; also recorded: no response is observed |
| PYY: unrelated neuropeptide | – | – | activation of oocytes injected with SNORF2 synthetic RNA (SNORF2 (NPFF1)): failed to activate |
| CCNC(C)Cc1cccc(C(F)(F)F)c1 (stereo not shown) [fenfluramine] | 5.000 | 5.000 | – |
| ibogaine | 5.000 | – | – |
| YLFQPQRF-NH2 [Y8Fa] [listing 2 of 2 here] | – | – | Ki [1, 4]: 4.15 nM |
| N=C(N)NCCC[C@@H](N)C(=O)O [D-arginine] | 5.000 | 5.000 | – |
| NCCc1c[nH]c2ccc(O)cc12 [5-HT] | – | – | activation of oocytes injected with SNORF2 synthetic RNA (SNORF2 (NPFF1)): failed to activate |
| NPY: unrelated neuropeptide | – | – | inhibition of [125I](1DMe)Y8Fa binding (NPFF receptors): No inhibition; inward current response (NPFF2 (hNPFF2)): failed to activate responses; also recorded: no response is observed |
| CNCCCN1c2ccccc2CCc2ccccc21 [desipramine] | 5.000 | 5.000 | – |
| CC(C)C[C@@H](NC(=O)[C@H](N)Cc1ccc(O)cc1)C(=O)N[C@H](Cc1ccccc1)C(=O)N[C@@H](CCC(N)=O)C(=O)N1CCC[C@H]1C(=O)N[C@@H](CCC(N)=O)C(=O)N[C@@H](CCCNC(=N)N)C(=O)N[C@@H](Cc1ccccc1)C(N)=O [(3D)Y8Fa] (H-[dY][dL][dF]QPQRF-NH2; N-terminus assumed) | – | – | Ki [1, 4]: 2.38 nM |
| COc1ccc2c(c1)[nH]c1c(C)nccc12 [harmine] | 5.000 | 5.000 | – |
| Cc1nc2sccn2c(=O)c1CCN1CCC(=C(c2ccc(F)cc2)c2ccc(F)cc2)CC1 [ritanserine] | 5.000 | 5.000 | – |
| substance P | 5.000 | – | inhibition of [125I](1DMe)Y8Fa binding (NPFF receptors): No inhibition |
| a-MSH | 5.000 | – | – |
| CN1CC[C@]23c4c5ccc(O)c4O[C@H]2[C@@H](O)C=C[C@H]3[C@H]1C5 [morphine] | – | – | inhibition of [125I](1DMe)Y8Fa binding (NPFF receptors): No inhibition |
| B1 | – | – | activation of oocytes injected with SNORF2 synthetic RNA (SNORF2 (NPFF1)): failed to activate |

From US7041461B2 (H. Lundbeck A/S, priority 1998, dated 2006)
